Values quoted from earlier work as cited in patent US9277761B2, “Nutrition trace element composition” (priority 2003, dated 2016).
Where two headings read alike, the source gives them in different places.

Legend:
[1] = cited from earlier work
humans [2] = conditions: 12 g/d for 2 days, child; cited from earlier work
humans [3] = conditions: cited from earlier work
rats = conditions: intravenous administration; cited from earlier work
guinea pigs = conditions: peroral administration; cited from earlier work
[4] = oral administration of 1 mg of sodium selenite; cited from earlier work
rabbits = conditions: cited from earlier work
mice = conditions: cited from earlier work
[5] = tested on: various experimental animals; conditions: cited from earlier work

## O=[75Se]([O-])[O-].[Na+].[Na+] [[^75Se] sodium selenite]
[1]; intravenous, first 24 hours
  Dose excreted: 12%
[1]; intravenous
  Additional portion of dose eliminated in second phase: 40%
  Biological half-life of second phase: 20 days
  Half-life of the third phase: 115 days
[1]; oral 10 μg, first two weeks
  Absorbed dose excreted through the urine: 14-20%
[1]; oral 10 μg
  Half-life of total body retention, 1st phase: 0.7 to 1.2 days
  Half-life of total body retention, 2nd phase: 7 to 11 days
  Half-life of total body retention, 3rd phase: 96 to 144 days

## [Zn] [elementary zinc]
Humans [2]
  Symptoms after ingestion: recklessness, lethargy and dysgraphia

## O=[Se](O)O [selenous acid]
Humans [3]; two children, 10-15 ml weapon-cleaning agent with approx. 1.8% selenous acid, roughly 110 mg selenium
  Outcome of acute selenium poisoning: died

## O=[Se](O)O [sodium selenite]
rats
  LD50: 5.7 mg/kg BW
Guinea pigs
  LD50: 2.3 mg/kg BW
[4]
  Absorption, average portion: 62±14%
Humans [3]; four persons, 2 mg selenium a day for 20-40 days
  Indications of selenium poisoning: did not result in any indications of selenium poisoning
Humans [3]; in vivo
  Chronic toxicity: 3-7 mg of selenium/day
  Whole blood concentration at which first symptoms of poisoning manifest: 1.05 mg of selenium/l whole blood
Humans [3]; long-term use (longer than three months)
  Dosage seen as harmless: up to 550 μg of selenium a day
Humans [3]; peroral 50 μg selenium per kg bodyweight over one year, patients with neuronal ceroid lipofuscinosis
  Symptoms of selenium poisoning: no symptoms of selenium poisoning were observed
Humans [3]; person, 2 mg sodium selenite (900 μg selenium) daily for more than two years
  Symptoms of chronic poisoning: fingernails were thickened and brittle
Humans [3]; person, approx. 27 mg selenium a day for approx. two months
  Symptoms of poisoning: suffered from lassitude, nausea, vomiting, depression, bad breath, hair loss and nails that fell off
rabbits; intravenous administration
  LD50: 0.9 mg/kg BW
rabbits; peroral administration
  LD50: 2.25 mg/kg BW
mice; intravenous administration
  LD50: 2.2 mg of selenium/kg BW
mice; peroral administration
  LD50: 3.2-3.5 mg/kg BW
[5]
  Acute toxicity: 1-5 mg of selenium per kg BW
